Assay results from patent US20220306623A1, “PYRIDYL OR PYRIMIDYL MTOR KINASE INHIBITORS” (GLAXOSMITHKLINE INTELLECTUAL PROPERTY DEVELOPMENT LIMITED, priority 2019, published 2022).

What was measured:
[1] = test system: phosphorylated Akt at serine 473 (pAKTs473) in primary lung fibroblasts derived from explanted tissue; assay: Phosphorylated Akt (Ser473) in vitro immunoassay (MSD), fibroblasts from explanted tissue; type: cell-based; conditions: Homo sapiens, Primary lung fibroblast, 96-well, compound 2 h, PDGF-BB 10 ng/ml 15 min, read-out: mean pIC50, pAKTs473 immunoassay (converted)
Text: Immunoassay using the Meso Scale Discovery (MSD) platform to measure the effect of test compounds on phosphorylated Akt at serine 473 (pAKTs473) in primary lung fibroblasts derived from explanted tissue. The human biological samples were sourced ethically and their research use was in accord with the terms of the informed consents under an IRB/EC approved protocol.
Human lung fibroblasts were routinely maintained in Dulbecco's Modified Eagle Medium (DMEM; Gibco, catalogue no. 21969-035) supplemented with 10% foetal bovine serum (FBS (heat-inactivated); Gibco, catalogue no. 10270-106) and 4 mM L-glutamine (Gibco, catalogue no. 25030024) at 37° C. in 10% CO2.
For the assay, cells were harvested using Trypsin/EDTA (Gibco, catalogue no. 25300-062), resuspended to give 1.2×10^5 cells/ml and 100 ul/well seeded into 96-well plates (Corning, Catalogue No. 3596) in DMEM supplemented with 0.4% FCS and 4 mM L-glutamine and incubated overnight at 37° C. in 10% CO2.
Test compounds were dissolved in 100% DMSO to give 10 mM stock solutions and serially diluted to generate a 10-point concentration response curve. Compounds were further diluted 100-fold into 96-well V-bottom polypropylene plates (Greiner, Catalogue no. 651201) with DMEM supplemented with 0.4% FCS and 4 mM L-glutamine to give 100 µM top compound concentration in 1% DMSO.
Compounds were further diluted 10-fold by transfer to 96-well plates containing cells ([…] top concentration, 0.1% DMSO final) and incubated for 2 h at 37° C. in 10% CO2, prior to stimulation with platelet-derived growth factor (PDGF)-BB (Gibco, Catalogue no. PHG0041) at 10 ng/ml (final) for 15 min at 37° C. in 10% CO2. Cell assay plates were then incubated on ice and treated with lysis buffer (Cell Signalling Technology, Catalogue No. 9803) containing protease and phosphatase inhibitors (Halt, Thermo Scientific, Catalogue No. 78444) for 30 min.
MSD plates (MSD, Phospho(Ser473)/Total Akt Whole Cell Lysate Kit, Catalogue No. K15100D-3) were blocked with 1×blocking buffer as per the manufacturer's instructions at RT with shaking, followed by washing (×3) with Tris-buffered saline containing 0.05% Tween-20 (TBST). Cell lysates (30 ul) were added and MSD plates incubated for 1 h at RT with shaking.
Plates were washed with TBST (×3), prior to addition of SULFO-TAG Anti-Total Akt Antibody as per the manufacturer's instructions and shaken at RT for 1 h. After washing with 1×TBST (×3), read buffer (1×) (MSD, Catalogue No. R92TC-1) was added as per the manufacturer's instructions before detecting electrochemiluminescence (MSD Sector Imager 600).
Data analysis was performed using non-linear regression analysis to determine IC50 values for test compounds. Minimum (no PDGF-BB stimulation) and maximum responses (+PDGF-BB stimulation) were monitored for assay quality control.

[2] = test system: type I collagen deposition in primary lung fibroblasts derived from human tissue; assay: Type I collagen deposition (scar-in-a-jar) high content screening assay; type: cell-based; conditions: Primary lung fibroblast, 72 h, human pulmonary fibroblasts, 96-well, TGFβ-1 1 ng/ml 72 h, collagen intensity, read-out: mean pIC50, type I collagen deposition (scar-in-a-jar) (converted)
Method: Cellular type I collagen deposition was measured by adapting a published method; scar-in-a-jar (Chen et al., 2009) to primary lung fibroblasts derived from human tissue and combining with high content analysis to permit fluorescent quantification of collagen deposited in the extracellular matrix (ECM). The human biological samples were sourced ethically and their research use was in accord with the terms of the informed consents under an IRB/EC approved protocol. Human pulmonary fibroblasts were maintained in DMEM media (Gibco, Catalogue No 21969) supplemented with 4 mM L-glutamine (Gibco Catalogue No 25030-024) and 100/heat inactivated FBS (Gibco #10270-106, Lot #42F6663K) at 37° C. in 10%/CO2. Cells were harvested and seeded at 10,000 cells per well (85 μL/well) into black walled 96 well imaging plates (BD Falcon, 353219) in assay media (0.4%/heat inactivated FBS, 4 mM L-glutamine) and incubated overnight at 37° C., 10%/CO2.
Test compounds were dissolved in 1000/DMSO to give 10 mM stocks which were further diluted (serial 1:3) to generate 10 point concentration response curves. Assay media was supplemented with 112.5 mg/ml Ficoll 70 (Sigma, Catalogue No F2878), 75 mg/ml Ficoll 400 (Sigma, Catalogue No F4375) and 50 µg/ml ascorbic acid (Sigma, Catalogue No A8960). 3 μL compound were added to 297 μL assay media (10× compound final concentration in 1% DMSO).
Diluted compounds (15 μL) were transferred to plates containing cells and incubated for 3 h at 37° C. in 10% CO2. Transforming growth factor (TGF)β-1 (R&D Systems, Catalogue No 100-B/CF) was reconstituted according to manufacturer's instructions to give 10 µg/mL (stock) and further diluted (1 in 3333) in assay media containing Ficoll and ascorbic acid. 50 μL TGFβ-1 was added to cell plates (1 ng/ml final) and cells incubated for 72 h at 37° C. in 10% CO2.
Media was removed and cells were fixed with 50 µL/well 100% ice-cold methanol (2 min). Methanol was decanted and cells washed with PBS (3×). To permeabilise, cells were incubated with PBS containing 0.1% Triton X 100 for 90 sec, followed by PBS wash (3×). Cells were incubated with mouse anti human type I collagen monoclonal antibody (Sigma, Catalogue No C2456) diluted 1:1000 in PBS overnight at 4° C. Cells were washed with PBS containing 0.05% Tween-20 (3×) and incubated with secondary alexa fluor 488 goat-anti-mouse antibody (Invitrogen, Catalogue No A11001, 1 in 500 in PBS) and Hoechst 33342 (Sigma, Catalogue No H21492), 1 in 10000 in PBS) for 1 h at RT, prior to washing with PBS containing 0.05% Tween (×3) before finally adding 200 µL/well PBS.
Type I collagen immunoreactivity was detected using the Thermofisher CellInsight NXT set to excitation and emission wavelengths for DAPI and FITC with exposure adjusted to appropriate levels. Images were analysed using Cellomics Studio software (Version 6.6.0, build 8153) and computational algorithms to quantify “collagen intensity” and “cell count”.
Data analysis was performed by determining % response values for test compounds relative to the maximum (TGFβ-1 stimulation) fitting a ‘log(inhibitor) vs. response-Variable slope (four parameters)’ curve and recording pIC50 (inverse of Log IC50) values for test compounds.

`CCCS(=O)(=O)Cc1cc(N2CCOC[C@@H]2CC)nc(-c2ccc3[nH]c(CNC)cc3n2)n1` [Example 32, (S)-1-(5-(4-(3-ethylmorpholino)-6-((propylsulfonyl)methyl)pyrimidin-2-yl)-1H-pyrrolo[3,2-b]pyridin-2-yl)-N-methylmethanamine] was tested, and the IC50 [1] was less than 0.1 µM and the IC50 [2] was less than 3.98 µM.
Molecule `CC[C@H]1COCCN1c1cc(CS(=O)(=O)N(CC)CC)nc(-c2ccc3[nH]c(CNC)cc3n2)n1` [Example 30, (S)—N,N-diethyl-1-(6-(3-ethylmorpholino)-2-(2-((methylamino)methyl)-1H-pyrrolo[3,2-b]pyridin-5-yl)pyrimidin-4-yl)methanesulfonamide] has an IC50 [2] of less than 3.98 µM.
For `CC[C@H]1COCCN1c1cc(CS(=O)(=O)CC)nc(-c2ccc3[nH]c(CNC)cc3n2)n1` [Example 33, (S)-1-(5-(4-(3-ethylmorpholino)-6-((ethylsulfonyl)methyl)pyrimidin-2-yl)-1H-pyrrolo[3,2-b]pyridin-2-yl)-N-methylmethanamine], the IC50 [2] was less than 3.98 µM.
